Read-outs that look alike come from different tables or passages of the source.
Columns and labels:
Escherichia coli = test: MIC measurement in agar medium (dilution test), Coli; assay type: cell-based; conditions: potentiator alone
Source text: (§1) Inhibitory minimum concentration measurement tests are made in a solid agar medium according to international standards in force (CLSI M7-A9 Jan 12 standards): dispersion of the compounds to be tested in a Mueller Hinton gelose. An adaptation relating to the hydrophobicity of compounds and compositions is however necessary to disperse them in the medium: dilution of the compounds in a solvent. The compounds and compositions incorporated in the agar medium can be diluted beforehand in one or more solvents (Tween® 80 diluted with water, Tween® 80 diluted with […], DMSO diluted with water). The strains are deposited onto the agar surface with a steers apparatus. In the examples, different dissolution methods for products are tested in parallel to circumvent the problems of water/solvent distribution coefficient of the molecules (antimicrobial and potentiator) whereas the bacteria grow only in the aqueous phase. The technical requirement will not intervene in in vivo tests. The same dilution methods can be implemented in a liquid medium (microplates and tubes). The same methodology is implemented with fungi. […] MIC measurement: the minimum inhibitory concentration measurement tests are made in an agar solid medium according to international standards in force (CLSI standards), according to the previously defined protocol. […] The booster contribution as compared with the MIC of the antibiotic alone is expressed in a (MIC ATB)/(MIC ATB+booster) ratio. Thereby, gains are defined: […]

Pseudomonas aeruginosa = test: MIC measurement in agar medium (dilution test), Pyo; assay type: cell-based; conditions: potentiator alone
Source text: as §1

[1] = system: methicillin resistant S. aureus (MRSA) strains 09003, 10168; test: MIC of the potentiator used alone on the strains of Examples 3 and 4; assay type: cell-based; conditions: Staphylococcus aureus, on these strains
E. Coli Strain 08138 = test: Etest, E. Coli Strain 08138; assay type: cell-based; conditions: for MIC: Escherichia coli, read-out: MIC of Pipera tazo, Strain 08138; for MIC of Cefoxitine / MIC of Tigecycline: Strain 08138
Source text: (§2) The corresponding tests are made based on the usual MIC test: the Etest® (Biomerieux) strip is deposited onto the surface of a seeded agar medium in which the booster has been incorporated. This test enables solvent effect risks, that is a possible interaction with the solvent used in vitro, to be minimised.
(§3) The control corresponds to the test made without cineol. A control is made in each solvent tested: distilled water, Tween/water and DMSO.
(§4) ED control=antibiotic alone in distilled water
(§5) DMSO control=antibiotic alone in DMSO
(§6) TE control=antibiotic alone in Tween® 80

Staphylococcus = test: MIC measurement in agar medium (dilution test), Staph; assay type: cell-based; conditions: potentiator alone
Source text: as §1

candidas = test: MIC measurement (dilution test) on yeast strains; assay type: cell-based, Candida; parameters: key to MIC 90 gain / MIC 50 gain: gain = MIC of antifungal alone / MIC of antifungal + booster; conditions: Sertaconazole with booster, solvent DMSO
Source text: Inhibitory minimum concentration measurement tests are made in a solid agar medium according to international standards in force (CLSI M7-A9 Jan 12 standards): dispersion of the compounds to be tested in a Mueller Hinton gelose. An adaptation relating to the hydrophobicity of compounds and compositions is however necessary to disperse them in the medium: dilution of the compounds in a solvent. The compounds and compositions incorporated in the agar medium can be diluted beforehand in one or more solvents (Tween® 80 diluted with water, Tween® 80 diluted with […], DMSO diluted with water). The strains are deposited onto the agar surface with a steers apparatus. In the examples, different dissolution methods for products are tested in parallel to circumvent the problems of water/solvent distribution coefficient of the molecules (antimicrobial and potentiator) whereas the bacteria grow only in the aqueous phase. The technical requirement will not intervene in in vivo tests. The same dilution methods can be implemented in a liquid medium (microplates and tubes). The same methodology is implemented with fungi. […] MIC measurement: the minimum inhibitory concentration measurement tests are made in an agar solid medium according to international standards in force (CLSI standards), according to the previously defined protocol. […] The booster contribution as compared with the MIC of the antibiotic alone is expressed in a (MIC ATB)/(MIC ATB+booster) ratio. Thereby, gains are defined: […] The yeast strains tested (n=33) belong to the […] albicans, Candida tropicalis, Candida krusei, Candida parapsilosis, Candida glabrata species.

[2] = system: Strain 10168, methicillin resistant S. aureus (MRSA); test: Resistance test (resistant mutants), Strain 10168; assay type: cell-based; conditions: MRSA, text after Table 16
Procedure: After 48 h incubation, the presence or absence of colonies likely to be resistant mutants is observed.
ED control or DMSO=only distilled water or DMSO is added
Ciprofloxacine DMSO: addition of Ciprofloxacine in DMSO

Strain 10168 SARM = test: Growth test in liquid medium; assay type: cell-based; conditions: compound at a very low dose
Source text: The growth tests are made in a liquid medium with prior dispersing the antibiotic booster in a suitable solvent (tween/water).
4XMIC means that the concentration of antibiotic is 4 times higher than its MIC, measured when used alone on the strain considered.

E. Coli Strain 8150 = test: Etest, E. Coli Strain 8150; assay type: cell-based; conditions: for MIC: Escherichia coli, read-out: MIC of Pipera tazo, Strain 8150; for MIC of Meropenem / MIC of Tigecycline / MIC of Pipera tazo: Strain 8150
Source text: as §2, §3, §4, §5, §6

[3] = booster 1 mg/L in agar, Tween/water
[4] = booster 4 mg/L in agar, Tween/water
[5] = booster 16 mg/L in agar, Tween/water

CC(=O)OCC=Cc1ccccc1 [AC, cinnamyl acetate]
MIC 50 (Escherichia coli; solvent DMSO): 1.00%
MIC 90 (Escherichia coli; solvent DMSO): 1.00%
MIC 50 (Escherichia coli; solvent Tween/prop glyc): >1%
MIC 90 (Escherichia coli; solvent Tween/prop glyc): >1%
MIC 50 (Escherichia coli; solvent Tween/water): >1%
MIC 90 (Escherichia coli; solvent Tween/water): >1%
MIC 50 (Escherichia coli; solvent water/water): >1%
MIC 90 (Escherichia coli; solvent water/water): >1%
MIC 50 (Pseudomonas aeruginosa; solvent DMSO): 1.00%
MIC 90 (Pseudomonas aeruginosa; solvent DMSO): 1.00%
MIC 50 (Pseudomonas aeruginosa; solvent Tween/prop glyc): >1%
MIC 90 (Pseudomonas aeruginosa; solvent Tween/prop glyc): >1%
MIC 50 (Pseudomonas aeruginosa; solvent Tween/water): >1%
MIC 90 (Pseudomonas aeruginosa; solvent Tween/water): >1%
MIC 50 (Pseudomonas aeruginosa; solvent water/water): >1%
MIC 90 (Pseudomonas aeruginosa; solvent water/water): >1%
MIC [1]: > 10000 µg/mL
MIC (E. Coli Strain 08138; booster 1 mg/L in agar, DMSO): 6 µg/mL
MIC (E. Coli Strain 08138; [3]): 2 µg/mL
MIC (E. Coli Strain 08138; booster 4 mg/L in agar, DMSO): 4 µg/mL
MIC (E. Coli Strain 08138; [4]): 2 µg/mL
MIC (E. Coli Strain 08138; booster 16 mg/L in agar, DMSO): 8 µg/mL
MIC (E. Coli Strain 08138; [5]): 2 µg/mL
MIC of Cefoxitine (E. Coli Strain 08138; booster 1 mg/L in agar, DMSO): 2 µg/mL
MIC of Tigecycline (E. Coli Strain 08138; booster 1 mg/L in agar, DMSO): 0.38 µg/mL
MIC of Cefoxitine (E. Coli Strain 08138; [3]): 2 µg/mL
MIC of Tigecycline (E. Coli Strain 08138; [3]): 0.25 µg/mL
MIC of Cefoxitine (E. Coli Strain 08138; booster 4 mg/L in agar, DMSO): 1.5 µg/mL
MIC of Tigecycline (E. Coli Strain 08138; booster 4 mg/L in agar, DMSO): 0.38 µg/mL
MIC of Cefoxitine (E. Coli Strain 08138; [4]): 1.5 µg/mL
MIC of Tigecycline (E. Coli Strain 08138; [4]): 0.19 µg/mL
MIC of Cefoxitine (E. Coli Strain 08138; booster 16 mg/L in agar, DMSO): 0.5 µg/mL
MIC of Tigecycline (E. Coli Strain 08138; booster 16 mg/L in agar, DMSO): 0.125 µg/mL
MIC of Cefoxitine (E. Coli Strain 08138; [5]): 4 µg/mL
MIC of Tigecycline (E. Coli Strain 08138; [5]): 0.19 µg/mL
MIC 50 (Staphylococcus; solvent DMSO): 1.00%
MIC 90 (Staphylococcus; solvent DMSO): 1.00%
MIC 50 (Staphylococcus; solvent Tween/prop glyc): >1%
MIC 90 (Staphylococcus; solvent Tween/prop glyc): >1%
MIC 50 (Staphylococcus; solvent Tween/water): >1%
MIC 90 (Staphylococcus; solvent Tween/water): >1%
MIC 50 (Staphylococcus; solvent water/water): >1%
MIC 90 (Staphylococcus; solvent water/water): >1%
MIC 50 gain (candidas; ratio 64/100): 0.05
MIC 90 gain (candidas; ratio 64/100): 0.28
MIC 50 gain (candidas; ratio 64/500): 2.00
MIC 90 gain (candidas; ratio 64/500): 1.00
occurrence of mutants on addition of the compound to ciprofloxacine [2]: does not cause the occurrence of mutants any longer
effect of the compound on bactericidal rate of Augmentin (Strain 10168 SARM): enables the bactericidal rate of Augmentin® to be accelerated
MIC (E. Coli Strain 8150; booster 1 mg/L in agar, DMSO): 0.75 µg/mL
MIC (E. Coli Strain 8150; [3]): 0.5 µg/mL
MIC of Meropenem (E. Coli Strain 8150; booster 1 mg/L in agar, DMSO): 0.023 µg/mL
MIC of Tigecycline (E. Coli Strain 8150; booster 1 mg/L in agar, DMSO): 0.064 µg/mL
MIC of Meropenem (E. Coli Strain 8150; [3]): 0.016 µg/mL
MIC of Tigecycline (E. Coli Strain 8150; [3]): 0.064 µg/mL
MIC of Meropenem (E. Coli Strain 8150; booster 4 mg/L in agar, DMSO): <
MIC of Pipera tazo (E. Coli Strain 8150; booster 4 mg/L in agar, DMSO): <
MIC of Tigecycline (E. Coli Strain 8150; booster 4 mg/L in agar, DMSO): <
MIC of Meropenem (E. Coli Strain 8150; [4]): <
MIC of Pipera tazo (E. Coli Strain 8150; [4]): <
MIC of Tigecycline (E. Coli Strain 8150; [4]): <
MIC of Meropenem (E. Coli Strain 8150; booster 16 mg/L in agar, DMSO): <
MIC of Pipera tazo (E. Coli Strain 8150; booster 16 mg/L in agar, DMSO): <
MIC of Tigecycline (E. Coli Strain 8150; booster 16 mg/L in agar, DMSO): <
MIC of Meropenem (E. Coli Strain 8150; [5]): <
MIC of Pipera tazo (E. Coli Strain 8150; [5]): <
MIC of Tigecycline (E. Coli Strain 8150; [5]): <

Reference: US10758620B2, “Potentiated antimicrobial agents” (SEPTEOS, priority 2014, dated 2020)
